One series has as its system nicotine dependent rats. Nature of the series: mecamylamine-precipitated nicotine abstinence signs in nicotine dependent rats. The settings on record: 1 mg/kg subcutaneous; 30 minutes; FIG. 2. It counts as in vivo, Sprague-Dawley rats. The procedure:
A study was conducted to compare the effects of low doses of dextromethorphan (1 mg/kg) alone, cotinine (1 mg/kg) alone, and a dextromethorphan plus cotinine combination (1 mg/kg each) versus placebo (saline) for their effect on nicotine dependence. The subjects were 30 male Sprague-Dawley rats, weighing between 282-372 grams each. All subjects were implanted subcutaneously with an Alza 2ML1 osmotic minipump under aseptic conditions and halothane anesthesia.
All subjects were rendered nicotine dependent by seven days infusion with 9 mg/kg/day nicotine bitartrate (3.15 mg/kg expressed as the base) in saline from the subcutaneous minipump. On the 7th day of infusion, each subject received two subcutaneous injections. Group 1 (n=8) received two injections of saline vehicle only. Group 2 (n=7) received a subcutaneous injection of saline and an subcutaneous injection of 1 mg/kg cotinine in saline. Group 3 (n=8) received a subcutaneous injection of saline and a subcutaneous injection of 1 mg/kg dextromethorphan. Group 4 (n=7) received a subcutaneous injection of 1 mg/kg cotinine and 1 mg/kg dextromethorphan. […] These low doses were intended to prevent any ceiling effect which may have masked the benefit of adding a second medication. The injection volumes in every case were […]. […]

The test system of series [1] is mecamylamine-precipitated nicotine withdrawal syndrome. Nature of the series: previous study of mecamylamine-precipitated nicotine withdrawal syndrome. As to conditions: dose 1 mg/kg, given alone. It is filed as in vivo. The procedure: All subjects were rendered nicotine dependent by seven days infusion with 9 mg/kg/day nicotine bitartrate (3.15 mg/kg expressed as the base) in saline from the subcutaneous minipump. On the 7th day of infusion, each subject received two subcutaneous injections. Group 1 (n=8) received two injections of saline vehicle only. Group 2 (n=7) received a subcutaneous injection of saline and an subcutaneous injection of 1 mg/kg cotinine in saline. Group 3 (n=8) received a subcutaneous injection of saline and a subcutaneous injection of 1 mg/kg dextromethorphan. Group 4 (n=7) received a subcutaneous injection of 1 mg/kg cotinine and 1 mg/kg dextromethorphan. […] These low doses were intended to prevent any ceiling effect which may have masked the benefit of adding a second medication. The injection volumes in every case were 1 mg/kg.

The conditions of series [2]: rat brain after peripheral nicotine administration; Dwoskin et al 1999; cited from earlier work.
The conditions of series [3]: humans; estimated by Benowitz 1983; cited from earlier work.

The values below come from patent publication US20100040679A1, “Compositions for Reducing Nicotine Withdrawal Symptoms and/or Tobacco Usage” (priority 2006, published 2010).

Take `CN1C(=O)CC[C@H]1c1cccnc1` [cotinine]: the “Miscellaneous Less-Frequent Signs (category of nicotine abstinence signs)” value in the series on nicotine dependent rats was “tied for lowest”. Also, the “effects in reducing mecamylamine-precipitated nicotine withdrawal syndrome” value in series [1] is “only minimal effects”. For the same compound, the “abundance as nicotine metabolite in brain” value in series [2] is “most abundant metabolite in rat brain”.

In the case of `COc1ccc2c(c1)[C@]13CCCC[C@@H]1[C@H](C2)N(C)CC3` [dextromethorphan, reference compound], in series [1], the “effects in reducing mecamylamine-precipitated nicotine withdrawal syndrome” value is reported as “only minimal effects”.

Regarding `CN1CCCC1c1cccnc1` (centres unmarked) [nicotine], the “systemically absorbed nicotine metabolized to cotinine” value in series [3] is 86%.
